Results taken from ChEMBL document CHEMBL6087433, “Discovery of ART0380, a Potent and Selective ATR Kinase Inhibitor Undergoing Phase 2 Clinical Studies for the Treatment of Advanced or Metastatic Solid Cancers” (J Med Chem, 2024).
Values after ≈ are worked out from the molar mass of the structure shown.

Tests used:
LoVo = assay: cells; details: Homo sapiens
Description: Antiproliferative activity against human LoVo cells assessed as inhibition of cell growth incubated for 7 days by CellTiter-Glo 2.0 assay

in vivo [1] = details: Sprague-Dawley, rat, po, 10 mg/kg
in vitro [2] = details: human, plasma
Description: Protein binding in human plasma assessed as free fraction at 5 uM incubated for 5 hrs by equilibrium dialysis method

Granta-519 = assay: cells; details: Homo sapiens
Description: Antiproliferative activity against human Granta-519 cells assessed as inhibition of cell growth incubated for 7 days by CellTiter-Glo 2.0 assay

in vitro [3] = details: human, CCD-18Co cells
Description: Cytotoxicity against human CCD-18Co cells assessed as inhibition of cell growth incubated for 7 days by CellTiter-Glo 2.0 assay

[4] = target: Serine/threonine-protein kinase mTOR (Homo sapiens, UniProt P42345)
physchem [5] = details: aqueous buffer, pH 7.4
Description: Thermodynamic solubility of the compound in aqueous buffer at pH 7.4

physchem [6] = details: Simulated Gastric Fluid
Description: Thermodynamic solubility of the compound in Simulated Gastric Fluid

Cytochrome P450 2D6 = Cytochrome P450 2D6 (Homo sapiens, UniProt P10635)
[7] = target: Phosphatidylinositol 4,5-bisphosphate 3-kinase catalytic subunit beta isoform (Homo sapiens, UniProt P42338)
Description: Inhibition of PI3Kbeta (unknown origin) by ADP-Glo assay

in vivo [8] = details: CD-1, mouse, iv, 1 mg/kg
Description: Volume of distribution at steady state in CD-1 mouse at 1 mg/kg, iv

in vivo [9] = details: CD-1, mouse, po, 30 mg/kg
in vitro [10] = details: human, Caco-2
Description: Apparent permeability of the compound across basolateral to apical side in human Caco-2 cells at 10 uM

CYP3A4 = CYP3A4 (Homo sapiens, UniProt P08684); assay: in vitro; details: human liver microsomes, probe midazolam
in vivo [11] = details: Beagle, dog, po, 10 mg/kg
in vivo [12] = details: CD-1, mouse, iv, 1 mg/kg; remark: listed apart in the source
Description: Half life in CD-1 mouse at 1 mg/kg, iv

in vitro [13] = details: human, Caco-2; remark: listed apart in the source
Description: Apparent permeability of the compound across apical to basolateral side in human Caco-2 cells at 10 uM

in vivo [14] = details: cynomolgus monkey, iv, 1 mg/kg
Description: Half life in cynomolgus monkey at 1 mg/kg, iv

Cytochrome P450 2B6 = target: T1, Cytochrome P450 2B6 (Homo sapiens, UniProt P20813)
T1 sequence (P20813 whole entry): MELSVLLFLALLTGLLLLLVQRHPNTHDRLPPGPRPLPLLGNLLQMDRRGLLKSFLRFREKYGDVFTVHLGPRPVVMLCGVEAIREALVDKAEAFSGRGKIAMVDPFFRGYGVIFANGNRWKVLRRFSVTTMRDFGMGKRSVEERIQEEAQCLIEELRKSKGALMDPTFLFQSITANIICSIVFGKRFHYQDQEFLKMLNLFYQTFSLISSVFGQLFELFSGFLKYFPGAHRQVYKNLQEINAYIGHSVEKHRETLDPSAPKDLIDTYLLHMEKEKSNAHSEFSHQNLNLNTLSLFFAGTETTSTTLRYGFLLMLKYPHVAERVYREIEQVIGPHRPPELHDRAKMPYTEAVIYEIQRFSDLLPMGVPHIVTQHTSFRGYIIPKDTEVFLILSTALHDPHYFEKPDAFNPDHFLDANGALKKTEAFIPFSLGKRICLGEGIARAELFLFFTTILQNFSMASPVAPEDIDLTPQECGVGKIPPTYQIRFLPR
Description: Inhibition of CYP2B6 in human liver microsomes by LC-MS/MS analysis

physchem [15] = details: Fed State Simulated Intestinal Fluid
Description: Thermodynamic solubility of the compound in Fed State Simulated Intestinal Fluid

Cytochrome P450 3A4 = Cytochrome P450 3A4 (Homo sapiens, UniProt P08684)
in vitro [16] = details: cynomolgus monkey, plasma
Description: Protein binding in cynomolgus monkey plasma assessed as free fraction at 5 uM incubated for 5 hrs by equilibrium dialysis method

in vitro [17] = details: mouse, hepatocytes
Description: Intrinsic clearance in mouse hepatocytes

Chain of Phosphatidylinositol 4,5-bisphosphate 3-kinase catalytic subunit beta isoform (P42338 whole entry, canonical isoform): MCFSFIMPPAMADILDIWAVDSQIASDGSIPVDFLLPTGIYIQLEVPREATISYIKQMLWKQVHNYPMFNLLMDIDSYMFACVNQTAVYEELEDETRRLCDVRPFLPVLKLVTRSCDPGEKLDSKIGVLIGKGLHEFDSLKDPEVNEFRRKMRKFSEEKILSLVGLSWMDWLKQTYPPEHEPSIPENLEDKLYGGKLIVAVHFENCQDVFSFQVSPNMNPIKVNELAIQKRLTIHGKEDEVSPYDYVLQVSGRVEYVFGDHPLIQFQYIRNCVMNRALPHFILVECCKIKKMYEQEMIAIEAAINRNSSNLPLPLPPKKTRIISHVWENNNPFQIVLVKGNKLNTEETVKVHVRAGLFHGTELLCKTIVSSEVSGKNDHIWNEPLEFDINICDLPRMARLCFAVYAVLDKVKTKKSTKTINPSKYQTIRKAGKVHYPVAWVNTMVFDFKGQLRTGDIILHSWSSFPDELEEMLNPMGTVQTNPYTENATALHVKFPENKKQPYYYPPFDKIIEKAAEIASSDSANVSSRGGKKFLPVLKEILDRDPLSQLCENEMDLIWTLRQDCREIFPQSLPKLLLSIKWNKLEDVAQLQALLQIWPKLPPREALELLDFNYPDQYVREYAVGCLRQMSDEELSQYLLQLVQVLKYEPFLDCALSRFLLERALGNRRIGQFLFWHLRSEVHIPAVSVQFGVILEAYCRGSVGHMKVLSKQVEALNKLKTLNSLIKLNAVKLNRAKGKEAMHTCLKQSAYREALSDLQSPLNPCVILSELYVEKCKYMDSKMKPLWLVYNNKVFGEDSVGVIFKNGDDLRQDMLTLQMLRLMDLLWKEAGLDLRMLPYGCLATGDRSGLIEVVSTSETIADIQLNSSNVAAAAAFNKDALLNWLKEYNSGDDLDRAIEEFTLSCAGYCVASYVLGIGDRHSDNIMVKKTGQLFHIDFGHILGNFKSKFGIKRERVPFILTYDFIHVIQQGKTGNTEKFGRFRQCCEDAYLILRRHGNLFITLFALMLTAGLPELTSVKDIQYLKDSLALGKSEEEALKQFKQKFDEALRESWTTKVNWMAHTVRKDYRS
Chain of Cytochrome P450 3A4 (P08684 whole entry): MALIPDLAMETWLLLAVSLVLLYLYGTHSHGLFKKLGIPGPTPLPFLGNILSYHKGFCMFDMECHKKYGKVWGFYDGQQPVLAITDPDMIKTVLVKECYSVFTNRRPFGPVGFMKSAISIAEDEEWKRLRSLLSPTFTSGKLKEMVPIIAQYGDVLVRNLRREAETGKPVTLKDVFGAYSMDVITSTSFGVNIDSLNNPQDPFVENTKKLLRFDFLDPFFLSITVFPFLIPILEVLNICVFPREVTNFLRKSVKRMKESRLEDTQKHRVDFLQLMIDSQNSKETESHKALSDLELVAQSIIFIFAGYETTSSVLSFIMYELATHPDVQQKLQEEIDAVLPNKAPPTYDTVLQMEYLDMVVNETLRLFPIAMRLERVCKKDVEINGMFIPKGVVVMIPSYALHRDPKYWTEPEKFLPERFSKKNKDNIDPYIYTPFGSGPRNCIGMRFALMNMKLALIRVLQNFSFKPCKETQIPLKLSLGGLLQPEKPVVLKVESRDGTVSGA
Chain of CYP3A4 (P08684 whole entry): as above
Chain of Cytochrome P450 2D6 (P10635 whole entry, canonical isoform): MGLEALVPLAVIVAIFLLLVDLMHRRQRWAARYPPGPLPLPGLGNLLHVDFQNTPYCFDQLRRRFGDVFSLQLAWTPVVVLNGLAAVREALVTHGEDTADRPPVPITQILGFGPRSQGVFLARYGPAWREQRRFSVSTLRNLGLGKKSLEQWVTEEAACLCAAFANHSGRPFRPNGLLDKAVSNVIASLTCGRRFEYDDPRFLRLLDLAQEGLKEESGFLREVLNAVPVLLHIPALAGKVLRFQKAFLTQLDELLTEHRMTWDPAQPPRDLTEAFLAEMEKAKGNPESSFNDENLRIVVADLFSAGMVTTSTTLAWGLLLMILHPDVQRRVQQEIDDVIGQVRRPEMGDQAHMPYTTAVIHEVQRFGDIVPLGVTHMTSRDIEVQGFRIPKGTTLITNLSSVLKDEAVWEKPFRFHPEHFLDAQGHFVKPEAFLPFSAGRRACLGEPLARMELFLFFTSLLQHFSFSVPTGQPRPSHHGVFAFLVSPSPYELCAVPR

Molecule `C[C@@H]1COCCN1c1cc(N=[S@@](C)(=O)C2CC2)nc(-c2ccnc(N)c2)n1` has an EC50 (LoVo) of 1.15 µM, an AUC(0-t) (in vivo [1]) of 3.78 µM·h and a fraction unbound at 5 h, 5 µM (in vitro [2]) of 0.45. For the same molecule, the EC50 (Granta-519) was 0.448 µM, the EC50 at 7 days (in vitro [3]) was 6.92 µM and the IC50 [4] was 8.38 µM. For the same molecule, the solubility thermodynamic (physchem [5]) was 1500 µg/mL (≈ 3.86 mM), the solubility thermodynamic (physchem [6]) was over 13000 µg/mL and the IC50 (Cytochrome P450 2D6) was over 10 µM. The IC50 [7] was over 50 µM, the Vd (in vivo [8]) was 4.9 L/kg and the Cmax (in vivo [9]) was 16.1 µM. The Papp B→A at 10 µM (in vitro [10]) was 34 ×10⁻⁶ cm/s, the inhibition at 0.5 h, 10 µM (CYP3A4) was 0.96% and the Cmax (in vivo [11]) was 1.93 µM. The half-life (in vivo [12]) was 2.8 h, the Papp A→B at 10 µM (in vitro [13]) was 17 ×10⁻⁶ cm/s and the half-life (in vivo [14]) was 1.3 h. The IC50 (Cytochrome P450 2B6) was over 10 µM, the solubility thermodynamic (physchem [15]) was over 5000 µg/mL and the IC50 (Cytochrome P450 3A4) was over 10 µM. For the same molecule, the fraction unbound at 5 h, 5 µM (in vitro [16]) was 0.54 and the CLint scaled (in vitro [17]) was 22 mL/min/kg.
